From patent publication US9056835B2, “LPA2 receptor-specific benzoic acid derivatives” (University of Tennessee Research Foundation, priority 2012, dated 2015)

Target: T1, LPA3 (Homo sapiens, UniProt Q9UBY5)
T1 construct: expressed in transfected cells
T1 sequence (Q9UBY5 1-353): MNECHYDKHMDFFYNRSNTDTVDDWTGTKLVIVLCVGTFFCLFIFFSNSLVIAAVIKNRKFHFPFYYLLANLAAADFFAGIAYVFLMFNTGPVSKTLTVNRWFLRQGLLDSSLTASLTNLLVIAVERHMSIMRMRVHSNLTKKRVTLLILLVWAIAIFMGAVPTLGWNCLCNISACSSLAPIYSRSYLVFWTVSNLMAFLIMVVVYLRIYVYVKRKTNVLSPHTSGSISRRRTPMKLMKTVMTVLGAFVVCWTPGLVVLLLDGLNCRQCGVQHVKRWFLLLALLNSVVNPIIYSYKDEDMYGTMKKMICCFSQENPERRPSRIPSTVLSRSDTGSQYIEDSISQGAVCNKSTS
Assay: LPA receptor-mediated Ca2+ mobilization assay, LPA3
Assay type: cell-based
Settings: for LPA3 Imax (%): inhibition by 10 μM compound of ~EC75 LPA 18:1 Ca2+ response; for inhibition of LPA3 Ca2+ response: 10 μM, ~EC75 LPA 18:1
Procedure: Similarity searches were performed separately using each fingerprint to quantitate similarity. Hits meeting the 80% similarity threshold from each search were ranked based on the Tanimoto coefficient measure of similarity to a target molecule NSC12404, and the top 75 unique hits from each fingerprint search were selected for further analysis. The 225 compounds selected for further analysis were clustered based on Tanimoto coefficients calculated using Molecular ACCess System-key fingerprints (MACCS keys) and evaluated using the diversity subset function implemented in MOE. This selected a diverse subset of 27 compounds for biological evaluation by choosing the middle compounds in each cluster. These 27 compounds were tested in Ca^2+ mobilization assays at a concentration of 10 μM using stable cell lines individually expressing LPA2 and also in vector-transfected control cells. Hits activating LPA2 were further tested using cells expressing the other established and putative LPA GPCRs. […] They arbitrarily selected GRI977143 for further characterization in cell-based assays.
J Biol Chem (2009) 284(25): 17304-17319). […] The cells were loaded with Fura-2-acetoxymethyl esther (Fura-2/AM) in Krebs buffer containing 0.01% pluronic acid for 30 min and rinsed with Krebs buffer before measuring Ca^2+ mobilization. The ratio of peak emissions at 510 nm after 2 min of ligand addition was determined for excitation wavelengths of 340 nm/380 nm. All samples were run in quadruplicate. […] The half maximally effective concentration (EC50), and inhibitory constant (Ki) values were calculated by fitting a sigmoid function to dose-response data points using KaleidaGraph software (version 4.1, Synergy Software; […]).
Mouse embryonic fibroblast (MEF) cells were isolated from E13.5 LPA1&2 double knockout (DKO) embryos. MEFs were transduced with empty vector or LPA2-containing lentiviruses and selected with 1.5 μg/ml puromycin. Cells were maintained in Dulbecco's modified Eagle medium (DMEM) supplemented with 10% (V/V) fetal bovine serum (FBS), 2 mM L-glutamine, 100 U/mL penicillin, and 100 μg/mL streptomycin. Serum-free medium contained 0.1% (W/V) BSA in DMEM. The rat intestinal epithelial cell line 6 (IEC-6) was obtained from the American Type Culture Collection (Rockville, Md.) at passage 13; passages 16-21 were used in all experiments. IEC-6 cells were maintained in a humidified 37° C. incubator in an atmosphere of 90% air and 10% CO2. Growth medium consisted of DMEM supplemented with 5% heat inactivated FBS, 10 μg/mL insulin, and 50 μg/mL gentamycin. The composition of the serum-starvation medium was the same as that of the full growth medium except that it contained no FBS. The McArdle rat hepatoma cell line (RH7777) stably expressing LPA2 receptors was a gift from Dr. Fumikazu Okajima (Gunma University, Maebashi, Japan). RH7777 cells stably expressing LPA1 or LPA3 receptors were generated in-house and had been characterized earlier. Wild type and LPA receptor (LPAR) stably transfected RH7777 cells were grown in DMEM supplemented with 10% FBS and 2 mM L-glutamine in the presence of 250 μg/ml G418. Chinese hamster ovary (CHO) cells stably expressing either vector or LPA4 receptor were a kind gift from Dr. Takao Shimizu (Tokyo University; Tokyo, Japan). Cells were cultured in Ham's F12 medium containing 10% FBS, 2 mM L-glutamine, and 350 μg/ml G418. Rat neuroblastoma cells (B103) were transduced with the lentivirus harboring wild type of FLAG-LPA5 and selected with puromycin to establish the stable cell lines. The stable cells were maintained in DMEM supplemented with 10% FBS and 0.4 μg/ml puromycin. GPR87- and P2Y10-expressing CHO cells and vector-transfected control cells were a gift from Dr. Norihisha Fujita (Ritsumeikan University; Shiga, Japan).

Compound	LPA3 Imax (%)	inhibition of LPA3 Ca2+ response	Ki (antagonist, Ca2+ mobilization, read-out: LPA3 K) [nM]	EC50 (agonist, Ca2+ mobilization) [nM]
O=C(O)c1cc(Cl)c(Cl)cc1C(=O)Nc1ccc2c(c1)C(=O)c1ccccc1-2 [Compound H2L5547924]	66	–	–	–
O=C(O)c1ccccc1C(=O)Nc1ccc2c(c1)C(=O)c1ccccc1C2=O [Compound H2L5828102]	100	fully inhibited	1500	–
O=C(O)c1ccccc1C(=O)Nc1ccc2c(c1)C(=O)c1ccccc1-2 [NSC12404]	61	inhibited LPA3	–	–
O=C(O)c1ccccc1SCCCN1C(=O)c2cccc3cccc(c23)C1=O [GRI977143]	55	inhibited LPA3	–	–
octadecenyl thiophosphate [OTP]	–	–	–	297
